Results published in patent publication US7935722B2 (Eli Lilly and Company, priority 2005, dated 2011).
Several values for one entry are separate records, joined by “and”; a condition that tells them apart may be missing. Equal entries are not always repeated. Where two headings read alike, the source gives them in different places.

Key:
[1] = target: T1, human AR (androgen receptor) (Homo sapiens, UniProt P10275); experiment: Steroid hormone nuclear receptor binding assay, AR binding
T1 construct: expressed in transfected cells; host or cells: 293 cells (293-AR lysate)
T1 sequence (P10275 1-920): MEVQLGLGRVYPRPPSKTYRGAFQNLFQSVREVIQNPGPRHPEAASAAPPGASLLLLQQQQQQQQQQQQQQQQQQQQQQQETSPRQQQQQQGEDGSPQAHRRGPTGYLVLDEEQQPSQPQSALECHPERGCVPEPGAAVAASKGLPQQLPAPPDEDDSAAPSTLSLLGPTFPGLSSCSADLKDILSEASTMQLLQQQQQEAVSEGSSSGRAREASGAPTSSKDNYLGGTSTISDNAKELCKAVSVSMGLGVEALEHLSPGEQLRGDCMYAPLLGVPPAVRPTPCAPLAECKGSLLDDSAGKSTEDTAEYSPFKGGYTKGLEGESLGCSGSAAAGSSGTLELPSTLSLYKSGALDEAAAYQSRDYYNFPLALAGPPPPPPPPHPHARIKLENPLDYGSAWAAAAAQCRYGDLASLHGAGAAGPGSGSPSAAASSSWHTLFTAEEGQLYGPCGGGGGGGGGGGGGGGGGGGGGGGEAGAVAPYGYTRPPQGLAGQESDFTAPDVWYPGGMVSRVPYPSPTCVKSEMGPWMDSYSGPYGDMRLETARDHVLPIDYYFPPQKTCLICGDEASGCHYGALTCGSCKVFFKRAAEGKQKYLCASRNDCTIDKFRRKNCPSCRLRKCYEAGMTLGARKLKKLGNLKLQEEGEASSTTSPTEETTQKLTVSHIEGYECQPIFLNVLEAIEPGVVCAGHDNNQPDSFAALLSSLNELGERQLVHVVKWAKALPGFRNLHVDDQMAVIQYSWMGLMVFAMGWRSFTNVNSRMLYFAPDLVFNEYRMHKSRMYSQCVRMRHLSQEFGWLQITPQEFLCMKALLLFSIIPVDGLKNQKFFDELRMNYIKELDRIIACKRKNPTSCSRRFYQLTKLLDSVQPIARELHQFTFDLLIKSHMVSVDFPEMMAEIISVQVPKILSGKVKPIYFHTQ
Method in brief: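 Competition binding with lysates of 293 cells overexpressing human AR, [3H]-methyltrienolone tracer, compounds from about 0.01 nM to 10 μM, overnight at 4 °C; non-specific binding set with 500 nM methyltrienolone. Bound tracer counted by scintillation after charcoal-dextran separation; IC50 converted to Ki by Cheng-Prusoff using Kd from saturation binding.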

[2] = target: T2, human androgen receptor (AR) (Homo sapiens, UniProt P10275); experiment: C2C12 AR/ARE reporter assay; type: cell-based
T2 construct: expressed in transfected cells; host or cells: mouse myoblast C2C12 cells, transiently co-transfected
T2 sequence (P10275 1-920): T1 sequence (P10275 1-920)
Method in brief: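 Mouse C2C12 myoblasts co-transfected with AR/ARE reporter were plated in charcoal-stripped serum and treated for 48 h with compound from about 0.01 nM to 10 μM. Luciferase activity gave EC50 by 4-parameter logistic fit. Efficacy is expressed as % of maximal stimulation by 10 nM methyltrienolone.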

[3] = C2C12, read-out: C2C12 % Efficacy
[4] = average of n trials, read-out: AR binding Ki
[5] = C2C12 AR/ARE reporter assay, average of n trials, read-out: C2C12 % Efficacy
[6] = C2C12 AR/ARE reporter assay, average of n trials, read-out: C2C12 EC50

For `CC(C)C(=O)NC1CCc2c(c3cc(-c4ccccn4)ccc3n2Cc2cccc(F)c2)C1` (stereo not drawn) [Example 131, N-[9-(3-Fluorobenzyl)-6-pyridin-2-yl-2,3,4,9-tetrahydro-1H-carbazol-3-yl]isobutyramide], the Ki [1] was 118 nM, the melting point was 228 to 230 °C and the EC50 [2] was 65.2 nM. The Emax [2, 3] was 91.3%.
For `CC(C)C(=O)NC1CCc2c(c3cc(C#N)ccc3n2Cc2ccc(F)cn2)C1` (stereo not drawn) [Example 181, N-[6-Cyano-9-(5-fluoro-pyridin-2-ylmethyl)-2,3,4,9-tetrahydro-1H-carbazol-3-yl]-isobutyramide], the Ki [1] was 34.6 nM, the melting point was 235 to 238 °C (dec.) and the EC50 [2] was 87.8 nM. The Emax [2, 3] was 93.5%.
`CC(C)C(=O)NC1CCc2c(c3cc(C#N)ccc3n2Cc2ncccc2F)C1` (stereo not drawn) [Example 182, N-[6-Cyano-9-(3-fluoro-pyridin-2-ylmethyl)-2,3,4,9-tetrahydro-1H-carbazol-3-yl]-isobutyramide] gave a Ki [1] of 28.4 nM, a melting point of 213 to 216 °C and an EC50 [2] of 151 nM. It also gave an Emax [2, 3] of 88.7%.
In the case of `CCOC(=O)Nc1ccc2c(c1)c1c(n2Cc2cccc(F)c2)CC[C@@H](NC(=O)C(C)C)C1` [Example 189, (R)-[9-(3-Fluoro-benzyl)-6-isobutyrylamino-6,7,8,9-tetrahydro-5H-carbazol-3-yl]-carbamic acid ethyl ester], the Ki [1, 4] is reported as 8.3 nM, the melting point is reported as 169 to 171 °C and the Emax [2, 5] is reported as 52.9%. It also gave an EC50 [2, 6] of 1.2 nM.
With `COC(=O)Nc1ccc2c(c1)c1c(n2Cc2cccc(F)c2)CC[C@@H](NC(=O)C(C)C)C1` [Example 190, (R)-[9-(3-Fluorobenzyl)-6-isobutyrylamino-6,7,8,9-tetrahydro-5H-carbazol-3-yl]-carbamic acid methyl ester] the Ki [1] was 6.7 nM, the melting point was 111 to 115 °C and the EC50 [2] was 2.2 nM. For the same compound, the Emax [2, 3] was 86%.
For `CC(C)C(=O)N[C@@H]1CCc2c(c3cc(-c4ccno4)ccc3n2Cc2cccc(F)c2)C1` [Example 192, (R)-N-[9-(3-Fluoro-benzyl)-6-isoxazol-5-yl-2,3,4,9-tetrahydro-1H-carbazol-3-yl]-isobutyramide], the Ki [1] was 2.6 nM, the melting point was 238 to 241 °C and the EC50 [2] was 7.7 nM. The Emax [2, 3] was 66.5%.
For `N#Cc1ccc2c(c1)c1c(n2Cc2cccc(F)c2)CCC(NC(=O)C2CC2)C1` (stereo not drawn) [Example 193, Cyclopropanecarboxylic acid[6-cyano-9-(3-fluorobenzyl)-2,3,4,9-tetrahydro-1H-carbazol-3-yl]amide], the Ki [1] was 4.3 nM, the melting point was 208 to 210 °C and 207 to 209 °C and the EC50 [2] was 7.9 nM. For the same compound, the Emax [2, 3] was 92.7%.
`N#Cc1ccc2c(c1)c1c(n2Cc2cccc(F)n2)CC[C@@H](NC(=O)C2CC2)C1` [Example 195, Cyclopropanecarboxylic acid[6-cyano-9-(6-fluoro-pyridin-2-ylmethyl)-2,3,4,9-tetrahydro-1H-carbazol-3-yl]-amide] showed a Ki [1] of 4.3 nM, a melting point of 243 to 245 °C and an EC50 [2] of 2.7 nM. The Emax [2, 3] was 96.5%.
With `N#Cc1ccc2c(c1)c1c(n2Cc2ccccn2)CC[C@@H](NC(=O)C2CC2)C1` [Example 196, Cyclopropanecarboxylic acid[6-cyano-9-(pyridin-2-ylmethyl)-2,3,4,9-tetrahydro-1H-carbazol-3-yl]-amide] the Ki [1] was 16.1 nM, the melting point was 239 to 241 °C and the EC50 [2] was 15.3 nM. For the same compound, the Emax [2, 3] was 95.2%.
In the case of `CO/N=C/c1ccc2c(c1)c1c(n2Cc2cccc(F)c2)CCC(NC(=O)C(C)C)C1` (stereo not drawn) [Example 199, N-[9-(3-Fluoro-benzyl)-6-(methoxyimino-methyl)-2,3,4,9-tetrahydro-1H-carbazol-3-yl]-isobutyramide], the Ki [1, 4] is reported as 6.6 nM, the melting point is reported as 180 to 182 °C and the Emax [2, 5] is reported as 83.6%. It also gave an EC50 [2, 6] of 1.8 nM.
Work on `Cc1cc(-c2ccc3c(c2)c2c(n3Cc3cccc(F)c3)CC[C@@H](NC(=O)C3CC3)C2)no1` [Example 204, (R)-Cyclopropanecarboxylic acid[9-(3-fluoro-benzyl)-6-(5-methyl-isoxazol-3-yl)-2,3,4,9-tetrahydro-1H-carbazol-3-yl]-amide] yielded a Ki [1] of 6.8 nM, a melting point of 190 to 192 °C and an EC50 [2] of 2.7 nM. The Emax [2, 3] was 90.8%.
For `CO/N=C/c1ccc2c(c1)c1c(n2Cc2cccc(F)c2)CC[C@@H](NC(=O)C2CC2)C1` [Example 205, (R)-Cyclopropanecarboxylic acid[9-(3-fluoro-benzyl)-6-(1-methoxyimino-methyl)-2,3,4,9-tetrahydro-1H-carbazol-3-yl]-amide], the Ki [1] was 3 nM, the melting point was 200 to 203 °C and the EC50 [2] was 0.5 nM. For the same compound, the Emax [2, 3] was 88.4%.
With `CO/N=C/c1ccc2c(c1)c1c(n2Cc2ccccn2)CCC(NC(=O)C2CC2)C1` (stereo not drawn) [Example 207, Cyclopropanecarboxylic acid[6-(1-methoxyimino-methyl)-9-pyridin-2-ylmethyl-2,3,4,9-tetrahydro-1H-carbazol-3-yl]-amide] the Ki [1] was 41.6 nM, the melting point was 88 to 92 °C and the EC50 [2] was 11.6 nM. It also gave an Emax [2, 3] of 93.3%.
`CO/N=C/c1ccc2c(c1)c1c(n2Cc2ccccn2)CC[C@@H](NC(=O)C2CC2)C1` [Example 208, (R)-Cyclopropanecarboxylic acid[6-(1-methoxyimino-methyl)-9-pyridin-2-ylmethyl-2,3,4,9-tetrahydro-1H-carbazol-3-yl]-amide] showed a Ki [1] of 21.1 nM, a melting point of 215 to 217 °C and an EC50 [2] of 3.8 nM. For the same compound, the Emax [2, 3] was 96.3%.
`CO/N=C/c1ccc2c(c1)c1c(n2Cc2cccc(F)n2)CC[C@@H](NC(=O)C2CC2)C1` [Example 209] showed a Ki [1] of 7.8 nM, a melting point of 223 to 225 °C and an EC50 [2] of 1.1 nM. The Emax [2, 3] was 95.7%.
